In paper PMC12133000 (PLOS One, 2025):
Where “and” joins values, the source holds several entries; their conditions need not be identical. Identical values can stand only once.

Assay: Pharmacokinetics of rivaroxaban in rats after avitinib or gefitinib pretreatment
Assay type: in vivo, Sprague–Dawley (SD) rats
Design: AUC(0-∞): concentration or dose not given beside the values
Description: Eighteen male Sprague–Dawley (SD) rats weighing 300 ± 20 g were provided by the Experimental Animal Center of Wenzhou Medical University (Wenzhou, China) and kept under controlled conditions at a temperature of 23 ± 2 °C, relative humidity of 50 ± 10%, and 12 h light–dark cycle. Eighteen male SD rats were randomly assigned to three groups: avitinib, gefitinib, and control, with six rats per group. Prior to the experiment, the rats were not administered any other medications and fasted for 12 h. The experimental procedures and protocols adhered to Animal Ethics standards and were approved by the Animal Care and Use Committee of Wenzhou Medical University (approval no. wydw2019–650). All rats were anesthetized with sodium pentobarbital (40mg/kg, i.p) to relieve pain. The rats were killed through cervical dislocation.
Prior to the experiment in vivo, the six rats in the avitinib group were administered 30 mg/kg avitinib and 0.5% sodium carboxymethyl cellulose (CMC-Na) solution by gavage daily for 7 d. […] The supernatant was collected and stored at −80 °C. After thawing, 50 μL of plasma was extracted; 100 μL of acetonitrile solution containing midazolam (200 ng/mL) was then added to induce protein precipitation. After vortexing for 30 s and centrifuging at 13,000 rpm for 5 min, the […].
All assays were performed in triplicate, and the results are expressed as mean ± standard deviation. DAS software v. […] SPSS v. 25.0 (IBM, NY, USA) was used for data processing. Student’s t-tests were used to detect differences between groups. Differences with p < 0.05 were considered statistically significant.

[1] = avitinib group, single rats No1-No6, listed as 利伐沙班
[2] = gefitinib group, single rats No1-No6, listed as 利伐沙班

AUMC(0-t) (avitinib group, Mean): 34198 h*h*ug/L
AUMC(0-∞) (avitinib group, Mean): 40098.5 h*h*ug/L
MRT(0-∞) (avitinib group, Mean): 4.258 h
R_AUC(t/∞) (avitinib group, Mean): 96.35%
VRT(0-t) (avitinib group, Mean): 6.828 h^2
VRT(0-∞) (avitinib group, Mean): 12.881 h^2
Vz/F (avitinib group, Mean): 3.719 L/kg
AUMC(0-t) (gefitinib group, Mean): 283625 h*h*ug/L
AUMC(0-∞) (gefitinib group, Mean): 684002 h*h*ug/L
R_AUC(t/∞) (gefitinib group, Mean): 79.633%
VRT(0-t) (gefitinib group, Mean): 8.14 h^2
VRT(0-∞) (gefitinib group, Mean): 63.366 h^2
concentration at 5 min (male, Sprague-Dawley, rat, plasma, oral, 10 mg/kg, rivaroxaban ng/ml mean, control (rivaroxaban alone) group, mean of rats 13-18, time 0.0833): 0.158 µg/mL
concentration at 0.25 h (male, Sprague-Dawley, rat, plasma, oral, 10 mg/kg, rivaroxaban ng/ml mean, control (rivaroxaban alone) group, mean of rats 13-18, time 0.25): 0.259 µg/mL
concentration at 0.5 h (male, Sprague-Dawley, rat, plasma, oral, 10 mg/kg, rivaroxaban ng/ml mean, control (rivaroxaban alone) group, mean of rats 13-18, time 0.5): 0.397 µg/mL
concentration at 1 h (male, Sprague-Dawley, rat, plasma, oral, 10 mg/kg, rivaroxaban ng/ml mean, control (rivaroxaban alone) group, mean of rats 13-18, time 1): 0.435 µg/mL
concentration at 2 h (male, Sprague-Dawley, rat, plasma, oral, 10 mg/kg, rivaroxaban ng/ml mean, control (rivaroxaban alone) group, mean of rats 13-18, time 2): 0.337 µg/mL
concentration at 3 h (male, Sprague-Dawley, rat, plasma, oral, 10 mg/kg, rivaroxaban ng/ml mean, control (rivaroxaban alone) group, mean of rats 13-18, time 3): 0.291 µg/mL
concentration at 4 h (male, Sprague-Dawley, rat, plasma, oral, 10 mg/kg, rivaroxaban ng/ml mean, control (rivaroxaban alone) group, mean of rats 13-18, time 4): 0.238 µg/mL
Structure (SMILES): O=C(NC[C@H]1CN(c2ccc(N3CCOCC3=O)cc2)C(=O)O1)c1ccc(Cl)s1 [rivaroxaban, Rivaroxaban]
AUC(0-t) [1]: 6.58183 µg·h/mL and 7.88862 µg·h/mL and 9.15191 µg·h/mL and 7.4174 µg·h/mL and 6.56088 µg·h/mL and 16.3723 µg·h/mL
AUC(0-∞) [1]: 6.85437 µg·h/mL and 9.13832 µg·h/mL and 9.1629 µg·h/mL and 7.4629 µg·h/mL and 6.60234 µg·h/mL and 16.8635 µg·h/mL
AUMC(0-t) [1]: 25199.7 h*h*ug/L and 32914.3 h*h*ug/L and 26176.1 h*h*ug/L and 34761 h*h*ug/L and 21050.6 h*h*ug/L and 65086.6 h*h*ug/L
AUMC(0-∞) [1]: 29578.1 h*h*ug/L and 55191.1 h*h*ug/L and 26325.9 h*h*ug/L and 35414.7 h*h*ug/L and 21638.6 h*h*ug/L and 72442.7 h*h*ug/L
CLz/F [1]: 1.459 L/h/kg and 1.094 L/h/kg and 1.091 L/h/kg and 1.34 L/h/kg and 1.515 L/h/kg and 0.593 L/h/kg
Cmax [1]: 1.4232 µg/mL and 1.5937 µg/mL and 2.3863 µg/mL and 1.1627 µg/mL and 1.5612 µg/mL and 2.7618 µg/mL
MRT(0-t) [1]: 4.172 h and 2.86 h and 4.686 h and 3.208 h and 3.975 h
MRT(0-∞) [1]: 4.315 h and 6.04 h and 4.745 h and 3.277 h and 4.296 h
R_AUC(t/∞) [1]: 96% and 86.3% and 99.9% and 99.4% (2×) and 97.1%
VRT(0-t) [1]: 8.179 h^2 and 9.654 h^2 and 3.358 h^2 and 8.878 h^2 and 4.734 h^2 and 6.165 h^2
VRT(0-∞) [1]: 14.228 h^2 and 34.982 h^2 and 3.496 h^2 and 9.426 h^2 and 5.486 h^2 and 9.666 h^2
Vz/F [1]: 5.931 L/kg and 6.375 L/kg and 1.763 L/kg and 3.171 L/kg and 3.308 L/kg and 1.765 L/kg
t1/2z [1]: 2.817 h and 4.037 h and 1.12 h and 1.64 h and 1.514 h and 2.062 h
λz [1]: 0.246 h⁻¹ and 0.172 h⁻¹ and 0.619 h⁻¹ and 0.423 h⁻¹ and 0.458 h⁻¹ and 0.336 h⁻¹
AUC(0-t) [2]: 48.3965 µg·h/mL and 60.3926 µg·h/mL and 53.8965 µg·h/mL and 64.2149 µg·h/mL and 58.5694 µg·h/mL
AUC(0-∞) [2]: 54.3276 µg·h/mL and 62.6337 µg·h/mL and 64.8182 µg·h/mL and 71.9358 µg·h/mL and 93.7988 µg·h/mL
AUMC(0-t) [2]: 349046 h*h*ug/L and 247888 h*h*ug/L and 261964 h*h*ug/L and 270195 h*h*ug/L and 282576 h*h*ug/L and 290080 h*h*ug/L
AUMC(0-∞) [2]: 1493251 h*h*ug/L and 344803 h*h*ug/L and 295419 h*h*ug/L and 469845 h*h*ug/L and 411554 h*h*ug/L and 1089140 h*h*ug/L
Cmax [2]: 6.4302 µg/mL and 11.2597 µg/mL and 7.0154 µg/mL and 10.6417 µg/mL and 7.7341 µg/mL
MRT(0-t) [2]: 5.122 h and 4.338 h and 5.013 h and 4.4 h and 4.953 h
MRT(0-∞) [2]: 13.743 h and 6.347 h and 4.717 h and 7.249 h and 5.721 h and 11.611 h
R_AUC(t/∞) [2]: 57.4% and 89.1% and 96.4% and 83.2% and 89.3% and 62.4%
VRT(0-t) [2]: 10.639 h^2 and 8.135 h^2 and 6.361 h^2 and 8.635 h^2 and 7.676 h^2 and 7.393 h^2
VRT(0-∞) [2]: 164.942 h^2 and 21.543 h^2 and 10.309 h^2 and 38.485 h^2 and 23.734 h^2 and 121.182 h^2
Vz/F [2]: 1.173 L/kg and 0.799 L/kg and 0.467 L/kg and 0.969 L/kg and 0.654 L/kg and 1.139 L/kg
t1/2z [2]: 8.833 h and 3.008 h and 2.029 h and 4.352 h and 3.261 h and 7.402 h
λz [2]: 0.078 h⁻¹ and 0.23 h⁻¹ and 0.342 h⁻¹ and 0.159 h⁻¹ and 0.213 h⁻¹ and 0.094 h⁻¹
